The subject of one data set is ROS (O2− and H2O2). The data set is described as follows: Flow cytometric measurement of ROS production in BMDMs. The conditions noted are these: LPS-primed BMDMs, compound 1 h, ATP 30 min (Fig. 3d). Type of data set: cell-based, mouse. The method, then: Intracellular ROS levels were measured by flow cytometry from cells cultured in serum-free medium and loaded with the redox-sensitive dye 2 µM dihydroethidium (DHE for O2^−; Calbiochem) or 10 µM 2′,7′-Dichlorofluorescin diacetate (DCFH-DA for H2O2; Calbiochem)[18],[19]. The cells were thoroughly and quickly washed with pulse spin and immediately acquired for analyses in FACSCalibur (BD Biosciences, San Jose, CA). The data were plotted using CellQuest software (BD Biosciences).
(§1) Figure 3 TIPTP robustly suppresses LPS/ATP-mediated Rubicon-p22phox interaction and ROS-mediated inflammation. (a) Structure of the TIPTP. (b) MTT assay for cell viability. BMDMs were incubated with TIPTP for the indicated times at the indicated TIPTP concentrations (upper). WCLs were used for IB with α22phox, αRubicon, or αActin (lower). (c–f) LPS (100 ng/ml)-primed BMDMs were treated with compounds for 1 h, and then activated with ATP (1 mM) for 30 min. (c) NADPH oxidase activity. (d) FACS analysis for superoxide and hydrogen peroxide (upper). Quantitative analysis of mean fluorescence intensities of ROS (lower). (e) BMDMs were incubated with increasing concentrations of compound 1 and TIPTP (com 2) (***). IP with αRubicon, followed by IB with αp22phox, αBeclin-1, αUVRAG, αRubicon. […] (f) Culture supernatants were harvested and analyzed for cytokines by ELISA. […]

A further data set in a line: Plasma stability assay. Type of data set: in vitro ADME. The conditions noted are these: 37 °C. The method, then: Human plasma in each culture tube, treated with test compound (10 μM), was incubated at 37 °C for 0, 30 and 120 min. At the determined period of time, internal standard solution of chlopropamide in acetonitrile was added into each culture tube and then tubes were vortexed for 5 min, and then centrifuged for 5 min (14,000 rpm, 4 °C). The supernatant was then injected into LC-MS/MS system to analyze the plasma stability of the tested compound.

Another data set concerns NADPH oxidase. Description: NADPH oxidase activity (lucigenin-ECL) in BMDMs. Type of data set: cell-based, mouse. The following applies: LPS or LPS/ATP stimulated (Fig. 3c, Supplemental Fig. 5b, 5e). The method, then:
Intracellular superoxide production was measured by the lucigenin (bis-N-methylacridinium nitrate)-ECL method[18],[19]. Briefly, cells lysates were allowed to equilibrate for 30 min at 37 °C in a reaction containing 50 mM phosphate buffer (pH 7.0), 1 mM EGTA, 150 mM sucrose, and a protease inhibitor mixture prior to the addition of Krebs-HEPES buffer containing lucigenin (5 μM) as the electron acceptor and NADPH (100 μM) as the electron donor. The values are expressed as relative light units per 1 × 10^5 cells.
as §1

One may read the amount remaining as the share of the starting amount still present when the sample was taken.

As for `C[C@@H](Oc1cccc(-n2cc3c(n2)CCCC3)c1)C(=O)Nc1nnc(C(F)(F)F)s1` [TIPTP, (R)-2-(3-(4,5,6,7-tetrahydro-2H-indazol-2-yl)phenoxy)-N-(5-(trifluoromethyl)-1,3,4-thiadiazol-2-yl)propanamide], the “ROS (O2− and H2O2) generation” value in the data set with ROS (O2− and H2O2) is given as “inhibited in a dose-dependent manner”. In addition, the “Human plasma stability (% remaining after 30 min)” value in “Plasma stability assay” (10 μM, 30 min, listed as TIPTP (2)) amounted to 97.4%. Besides, the “Human plasma stability (% remaining after 2 h)” value in the data set “Plasma stability assay” (10 μM, 2 h, listed as TIPTP (2)) is 93.8%. Moreover, in “Plasma stability assay” (human, plasma, 30 min, read-out: Human plasma stability (% remaining after 30 min)), the amount remaining at 0.5 h, 10 μM worked out at 97%. Also, the amount remaining at 2 h, 10 μM in “Plasma stability assay” (human, plasma, 2 h, read-out: Human plasma stability (% remaining after 2 h)) turned out to be 94%. Besides, the NOX activity entry with NADPH oxidase was “inhibited in a dose-dependent manner”.

Source of the values: article PMC7067850, “Identification of highly potent and selective inhibitor, TIPTP, of the p22phox-Rubicon axis as a therapeutic agent for rheumatoid arthritis” (Scientific Reports, 2020).
